# Patent US20230087118A1, “IMIDAZO[1,2-a][sequence] DERIVATIVES AND THEIR USE IN THE TREATMENT OF DISEASE” (priority 2019, published 2023)
# Where two headings read alike, the source gives them in different places.
# Biological target: T1, IRAK4 (Homo sapiens, UniProt Q9NWZ3)
# T1 sequence (Q9NWZ3 1-460): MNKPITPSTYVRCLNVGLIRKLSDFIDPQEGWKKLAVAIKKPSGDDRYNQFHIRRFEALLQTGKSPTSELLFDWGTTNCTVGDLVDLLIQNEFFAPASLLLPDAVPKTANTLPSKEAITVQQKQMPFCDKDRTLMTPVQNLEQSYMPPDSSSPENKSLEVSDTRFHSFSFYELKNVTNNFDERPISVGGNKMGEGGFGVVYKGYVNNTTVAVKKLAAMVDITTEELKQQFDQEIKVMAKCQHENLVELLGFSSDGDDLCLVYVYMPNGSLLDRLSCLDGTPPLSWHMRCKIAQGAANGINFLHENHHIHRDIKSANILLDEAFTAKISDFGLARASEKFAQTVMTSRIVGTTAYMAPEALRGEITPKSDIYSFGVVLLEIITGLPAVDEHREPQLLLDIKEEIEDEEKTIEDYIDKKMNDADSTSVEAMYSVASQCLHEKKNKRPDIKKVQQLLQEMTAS
# Assay: biochemical
# [1] = IRAK4 Biochemical Assay (1 mM ATP, 2 h) IC50 (μM), 1 mM ATP, 2 h, 100 pM IRAK4
Compound,IC50 [µM],IC50 [1] [µM]
"COc1cccc(NC(=O)c2cn3cc(C4CC4)nc3cc2OC2CCCC2)n1 [Example 465, 7-(Cyclopentyloxy)-2-cyclopropyl-N-(6-methoxypyridin-2-yl)imidazo[1,2-a]pyridine-6-carboxamide]",0.0079,–
"CC(C)COc1cc2nc(C3CC3)cn2cc1C(=O)Nc1cccc(C(F)F)n1 [Example 466, 2-Cyclopropyl-N-(6-(difluoromethyl)pyridin-2-yl)-7-isobutoxyimidazo[1,2-a]pyridine-6-carboxamide]",0.0057,–
"O=C(Nc1cccc(C(F)F)n1)c1cn2cc(C3CC3)nc2cc1OC1CCCC1 [Example 467, 7-(Cyclopentyloxy)-2-cyclopropyl-N-(6-(difluoromethyl)pyridin-2-yl)imidazo[1,2-a]pyridine-6-carboxamide]",0.001,–
"O=C(Nc1cccc(C(F)F)n1)c1cn2cc(C3CC3)nc2cc1OCC1CC2CCC1O2 (centres unmarked) [Example 470, 7-((7-Oxabicyclo[2.2.1]heptan-2-yl)methoxy)-2-cyclopropyl-N-(6-(difluoromethyl)pyridin-2-yl)imidazo[1,2-a]pyridine-6-carboxamide]",–,0.0015
"CC1(C)CC(Oc2cc3nc(C4CC4)cn3cc2C(=O)Nc2cccc(C(F)F)n2)C1 [Example 472, 2-Cyclopropyl-N-(6-(difluoromethyl)pyridin-2-yl)-7-(3,3-dimethylcyclobutoxy)imidazo[1,2-a]pyridine-6-carboxamide]",0.0064,–
"O=C(Nc1cccc(C(F)F)n1)c1cn2cc(C3CC3)nc2cc1OC1CCOCC1 [Example 473, 2-Cyclopropyl-N-(6-(difluoromethyl)pyridin-2-yl)-7-((tetrahydro-2H-pyran-4-yl)oxy)imidazo[1,2-a]pyridine-6-carboxamide]",–,0.0064
"O=C(Nc1cccc(C(F)F)n1)c1cn2cc(C3CC3)nc2cc1OC1CCC1 [Example 474, 7-Cyclobutoxy-2-cyclopropyl-N-(6-(difluoromethyl)pyridin-2-yl)imidazo[1,2-a]pyridine-6-carboxamide]",0.0007,–
"O=C(Nc1cccc(C(F)F)n1)c1cn2cc(C3CC3)nc2cc1OC1CC(F)(F)C1 [Example 476, 2-Cyclopropyl-7-(3,3-difluorocyclobutoxy)-N-(6-(difluoromethyl)pyridin-2-yl)imidazo[1,2-a]pyridine-6-carboxamide]",–,0.0088
"O=C(Nc1cccc(C(F)F)n1)c1cn2cc(C3CC3)nc2cc1OC1CC(C(F)F)C1 (centres unmarked) [Example 477, 2-Cyclopropyl-7-(3-(difluoromethyl)cyclobutoxy)-N-(6-(difluoromethyl)pyridin-2-yl)imidazo[1,2-a]pyridine-6-carboxamide]",–,0.0011
"COc1cccc(NC(=O)c2cn3cc(C4CC4)nc3cc2OCC2CC3CCC2O3)n1 (centres unmarked) [Example 478, 7-((7-Oxabicyclo[2.2.1]heptan-2-yl)methoxy)-2-cyclopropyl-N-(6-methoxypyridin-2-yl)imidazo[1,2-a]pyridine-6-carboxamide]",–,0.0055
"COc1cc2nc(C3CCOCC3)cn2cc1C(=O)Nc1cccn2nccc12 [Example 479, 7-Methoxy-N-(pyrazolo[1,5-a]pyridin-4-yl)-2-(tetrahydro-2H-pyran-4-yl)imidazo[1,2-a]pyridine-6-carboxamide]",0.0092,–
"CCOc1cccc(NC(=O)c2cn3cc(C4CC4)nc3cc2OC(C)C)n1 [Example 481, 2-Cyclopropyl-N-(6-ethoxypyridin-2-yl)-7-isopropoxyimidazo[1,2-a]pyridine-6-carboxamide]",0.0089,–
"CC(C)Oc1cc2nc(C3CC3)cn2cc1C(=O)Nc1cccc(OCC(F)F)n1 [Example 482, 2-Cyclopropyl-N-(6-(2,2-difluoroethoxy)pyridin-2-yl)-7-isopropoxyimidazo[1,2-a]pyridine-6-carboxamide]",0.0067,–
"CC(C)Oc1cc2nc(C3CC3)cn2cc1C(=O)Nc1cccc(CO)n1 [Example 483, 2-Cyclopropyl-N-(6-(hydroxymethyl)pyridin-2-yl)-7-isopropoxyimidazo[1,2-a]pyridine-6-carboxamide]",0.009,–
"CCOc1nc(C(=O)Nc2cc(F)ccc2OC)cn2cc(C34COC(C)(C3)C4)nc12 [Example 484, 8-Ethoxy-N-(5-fluoro-2-methoxyphenyl)-2-(1-methyl-2-oxabicyclo[2.1.1]hexan-4-yl)imidazo[1,2-a]pyrazine-6-carboxamide]",0.0073,–
"CCOc1nc(C(=O)Nc2cccc(F)c2OC)cn2cc(C34COC(C)(C3)C4)nc12 [Example 487, 8-Ethoxy-N-(3-fluoro-2-methoxyphenyl)-2-(1-methyl-2-oxabicyclo[2.1.1]hexan-4-yl)imidazo[1,2-a]pyrazine-6-carboxamide]",0.0027,–
"CCOc1nc(C(=O)Nc2ccn(C(F)F)n2)cn2cc(C34COC(C)(C3)C4)nc12 [Example 490, N-(1-(difluoromethyl)-1H-pyrazol-3-yl)-8-ethoxy-2-(1-methyl-2-oxabicyclo[2.1.1]hexan-4-yl)imidazo[1,2-a]pyrazine-6-carboxamide]",0.0065,–
"CCOc1nc(C(=O)Nc2ccc(F)cc2OC)cn2cc(C34COC(C)(C3)C4)nc12 [Example 491, 8-Ethoxy-N-(4-fluoro-2-methoxyphenyl)-2-(1-methyl-2-oxabicyclo[2.1.1]hexan-4-yl)imidazo[1,2-a]pyrazine-6-carboxamide]",0.0023,–

# Next, values leading:
IC50 [µM],IC50 [1] [µM],Compound
0.0081,–,"COc1ncccc1NC(=O)c1cn2cc(C3CC3)nc2cc1OC1CCCC1 [Example 464, 7-(Cyclopentyloxy)-2-cyclopropyl-N-(2-methoxypyridin-3-yl)imidazo[1,2-a]pyridine-6-carboxamide]"
0.007,–,"O=C(Nc1cccc(C(F)F)n1)c1cn2cc(C3CC3)nc2cc1OC1CCOC1 (centres unmarked) [Example 468, 2-Cyclopropyl-N-(6-(difluoromethyl)pyridin-2-yl)-7-((tetrahydrofuran-3-yl)oxy)imidazo[1,2-a]pyridine-6-carboxamide]"
–,0.0412,"CN1CCC(Oc2cc3nc(C4CC4)cn3cc2C(=O)Nc2cccc(C(F)F)n2)C1=O (centres unmarked) [Example 469, 2-Cyclopropyl-N-(6-(difluoromethyl)pyridin-2-yl)-7-((1-methyl-2-oxopyrrolidin-3-yl)oxy)imidazo[1,2-a]pyridine-6-carboxamide]"
–,0.0058,"O=C(Nc1cccc(C(F)F)n1)c1cn2cc(C3CC3)nc2cc1OCC1CC(F)(F)C1 [Example 471, 2-Cyclopropyl-7-((3,3-difluorocyclobutyl)methoxy)-N-(6-(difluoromethyl)pyridin-2-yl)imidazo[1,2-a]pyridine-6-carboxamide]"
–,0.0088,"CC1(COc2cc3nc(C4CC4)cn3cc2C(=O)Nc2cccc(C(F)F)n2)CCOC1 (centres unmarked) [Example 475, 2-Cyclopropyl-N-(6-(difluoromethyl)pyridin-2-yl)-7-((3-methyltetrahydrofuran-3-yl)methoxy)imidazo[1,2-a]pyridine-6-carboxamide]"
0.0075,–,"CCn1cccc(NC(=O)c2cn3cc(C4CC4)nc3cc2OC(C)C)c1=O [Example 480, 2-Cyclopropyl-N-(1-ethyl-2-oxo-1,2-dihydropyridin-3-yl)-7-isopropoxyimidazo[1,2-a]pyridine-6-carboxamide]"
0.009,–,"CCOc1nc(C(=O)Nc2cccc(F)c2Cl)cn2cc(C34COC(C)(C3)C4)nc12 [Example 485, N-(2-chloro-3-fluorophenyl)-8-ethoxy-2-(1-methyl-2-oxabicyclo[2.1.1]hexan-4-yl)imidazo[1,2-a]pyrazine-6-carboxamide]"
0.0075,–,"CCOc1nc(C(=O)Nc2cccc(OC)n2)cn2cc(C34COC(C)(C3)C4)nc12 [Example 486, 8-Ethoxy-N-(6-methoxypyridin-2-yl)-2-(1-methyl-2-oxabicyclo[2.1.1]hexan-4-yl)imidazo[1,2-a]pyrazine-6-carboxamide]"
0.0081,–,"CCOc1nc(C(=O)Nc2cccc(Cl)c2F)cn2cc(C34COC(C)(C3)C4)nc12 [Example 488, N-(3-chloro-2-fluorophenyl)-8-ethoxy-2-(1-methyl-2-oxabicyclo[2.1.1]hexan-4-yl)imidazo[1,2-a]pyrazine-6-carboxamide]"
0.0031,–,"CCOc1nc(C(=O)Nc2cccc3ccnn23)cn2cc(C34COC(C)(C3)C4)nc12 [Example 489, 8-Ethoxy-2-(1-methyl-2-oxabicyclo[2.1.1]hexan-4-yl)-N-(pyrazolo[1,5-a]pyridin-7-yl)imidazo[1,2-a]pyrazine-6-carboxamide]"
0.0016,–,"CCOc1nc(C(=O)Nc2cccnc2OC(F)F)cn2cc(C34COC(C)(C3)C4)nc12 [Example 492, N-(2-(difluoromethoxy)pyridin-3-yl)-8-ethoxy-2-(1-methyl-2-oxabicyclo[2.1.1]hexan-4-yl)imidazo[1,2-a]pyrazine-6-carboxamide]"
0.0032,–,"CCOc1nc(C(=O)Nc2cccc(C3CC3)n2)cn2cc(C34COC(C)(C3)C4)nc12 [Example 493, N-(6-cyclopropylpyridin-2-yl)-8-ethoxy-2-(1-methyl-2-oxabicyclo[2.1.1]hexan-4-yl)imidazo[1,2-a]pyrazine-6-carboxamide]"
0.0039,–,"CCOc1nc(C(=O)Nc2cccc(C(F)F)c2)cn2cc(C34COC(C)(C3)C4)nc12 [Example 494, N-(3-(difluoromethyl)phenyl)-8-ethoxy-2-(1-methyl-2-oxabicyclo[2.1.1]hexan-4-yl)imidazo[1,2-a]pyrazine-6-carboxamide]"
0.0088,–,"CCOc1nc(C(=O)Nc2cccc(Cl)c2)cn2cc(C34COC(C)(C3)C4)nc12 [Example 495, N-(3-chlorophenyl)-8-ethoxy-2-(1-methyl-2-oxabicyclo[2.1.1]hexan-4-yl)imidazo[1,2-a]pyrazine-6-carboxamide]"
